Assay results: patent US7892767B2, “Phosphospecific chemokine receptor antibodies” (Washington University in St. Louis, priority 2005, dated 2011)

Key:
Nf1−/− astrocytes [1] = assay: Cell number by trypan blue exclusion, Nf1−/− astrocytes; type: cell-based, mouse; conditions: CXCL12 0.1 ug/ml (≈10 nM), 24 hours, vs untreated controls
Experimental: Culture and treatment of primary astrocytes. Primary cultures of astrocytes were prepared from post-natal day two Nf1^flox/flox mice as previously described (134) and in accordance with established Animal Studies Protocols at Washington University School of Medicine. Cultures were infected with adenovirus containing either Cre recombinase (Nf1−/−) or LacZ (Nf1+/+). Primary cultures of astrocytes were grown under standard adherent conditions in serum free media (DMEM/F12 or Neurobasal (Gibco-BRL)) in the presence or absence of 0.1 μg/ml CXCL12 (Peprotech) and 10 μM Forskolin for 24 hours, as indicated. Cell number was determined after 24 hours by trypan blue exclusion and the growth effects of CXCL12 were derived as follows: ((cell number in the presence of CXCL12—cell number cell in the absence of CXCL12)/cell number in the absence of CXCL12)×100.)
To determine the biological significance of CXCR4 activation to NF1 glioma biology, we next sought to evaluate the regulation of CXCL12 growth effects by neurofibromin in astrocytes. While the true cell of origin of astrocytomas remains unknown, we utilized primary cultures of cortical astrocytes as a model of a normal counterpart to astrocytoma cells. Astrocytes were derived from Nf1^flox/flox mice and rendered Nf1+/+ or Nf1−/− by infection with adenovirus encoding LacZ or Cre recombinase, respectively.

Nf1−/− astrocytes [2] = assay: Cell cycle analysis by flow cytometry, Nf1−/− astrocytes; type: cell-based, mouse; conditions: CXCL12 0.1 μg/ml
Experimental: Cell Cycle Analysis. Ethanol fixed cells were washed in PBS and resuspended in PI staining solution containing 0.1% Triton-X-100, 0.2 mg/ml RNase A, and 20 ug/ml Propidium Iodide in PBS. The cells were incubated for 15 minutes at 37° C., in the dark. Flow Cytometry was performed on a FACSCalibur system (Becton Dickinson, San Jose, Calif.) Data were analyzed using CellQuest software (Becton Dickinson, San Jose, Calif.). Aggregates and debris were excluded from the analysis.
The basis for the in vitro growth effects of CXCL12 was further evaluated by cell cycle analysis of asynchronously growing cultures of Nf1+/+ and Nf1−/− astrocytes in the presence and absence of CXCL12. In agreement with measurements of cell number, 15% more Nf1−/− astrocytes were in the S+G2M fraction of the cell cycle compared to Nf1+/+ astrocytes (P<0.005, data not shown). This decrease in Nf1+/+ cell number in response to CXCL12 was the result of both a 6% decrease in proliferation (S+G2-M) and a 38+/−8% increase in apoptosis (sub-G0). The increase in Nf1−/− cell number was the result of a 27+/−12% decline in apoptosis alone (FIG. 9C).

Nf1+/+ astrocytes = assay: Intracellular cAMP by ELISA, Nf1+/+ astrocytes; type: cell-based, mouse; conditions: 0.1 μg/ml CXCL12, 45-minute period
Experimental: cAMP measurements. cAMP was measured by ELISA (Cayman Chemical Company, Ann Arbor, Mich. or Assay Designs, Ann Arbor, Mich.). Briefly, astrocyte cultures were lysed in 0.1 N HCl. After the removal of cellular debris, soluble cellular extract was dried down and resuspended in EIA buffer. Experimental samples and cAMP standard curve were acetylated to increase the sensitivity of the assay and incubated with cAMP ACHe tracer and cAMP EIA anti-serum overnight at 4° C. according to the manufacturer's instructions. After extensive washing, bound antibody was measured by spectrophotometric analysis. Concentrations of cAMP were derived from comparison with standard curve according to manufacturer's instructions.
We evaluated the time dependent changes in intracellular cAMP in Nf1+/+ and Nf1−/− astrocytes after exposure to 0.1 μg/ml CXCL12. […] However, in Nf1+/+ astrocytes, intracellular levels of cAMP rapidly recovered to baseline and oscillated between baseline and 40% of baseline over the 45-minute experimental period (FIG. 10B).
We hypothesized that if cooperative signaling between Nf1 loss and CXCR4 activation promotes tumor formation through the suppression of cAMP, then agents that alter intracellular cAMP should modulate CXCL12 responses. We treated astrocytes with the adenylyl cyclase (AC) activator forskolin in the presence and absence of CXCL12. […] In these experiments, forskolin elevated intracellular cAMP levels in both Nf1+/+ and Nf1−/− astrocytes with peak values of 17.8+/−0.4 and 19.4+/−4.5 pmol/mg of protein, respectively, after 24 hours of treatment. The effect of forskolin was not abrogated by co-treatment with CXCL12. Under these conditions, cAMP levels were 17.9+/−2.5 and 10.4+/−5.8 pmol/mg of total protein in Nf1+/+ and Nf1−/− astrocytes, respectively. […] The effect of forskolin on CXCL12-mediated Nf1−/− apoptosis was evidenced by changes in the percentage of Nf1−/− astrocytes in the sub-G0 fraction of the cell cycle (FIG. 11B). Thus while astrocyte growth is dependent upon MEK and PI3 kinase activity, CXCL12-induced Nf1−/− astrocyte growth requires the suppression of intracellular cAMP levels.

cortical astrocytes = assay: Intracellular cAMP by ELISA, primary cortical astrocytes; type: cell-based, mouse; conditions: 1 μg/ml CXCL12
Experimental: Primary astrocyte cultures. Primary astrocytes were cultured from 1 to 3-day-old BALB/C mice as described (57). The cortices were triturated into single cells in minimal essential medium (Invitrogen) containing 10% FCS, and then plated onto 75 cm^2 T-flasks (0.5 hemisphere/flask) for 10-14 days. Astrocytes were prepared by vigorous shaking of T-flasks overnight, removal of non-adherent cells, and isolation of the remaining adherent cells, with 0.1% trypsin.
(§1) Growth factor and drug treatment. Following serum-starvation for 24 hours, astrocytes, granule cells, U87 cells and Daoy cells, were treated with 1 μg/ml CXCL12 (PeproTech), […] AMD3465 (kind gift from Simon Fricker, AnorMED, Langley, BC, Canada) (200 μM Rolipram (Sigma), or 10 μM Forskolin (Sigma) as indicated.
Determination of cAMP concentration. Competitive immunoassay for cAMP concentration was performed exactly as directed by the manufacturer. Absorbance at 405 nm was measured and cAMP concentrations were determined by calculation based on a standard curve. Protein concentrations were measured by colormetric assay (Bio-Rad, Hercules, Calif.) according to the manufacturer's directions. cAMP values were normalized to protein for each sample individually.

U87 glioblastoma cells = assay: Viable cell number by trypan blue exclusion, U87 cells; type: cell-based, human; conditions: CXCL12 1 μg/ml
Experimental: Brain tumor cell cultures. Cells were cultured in αMEM (Invitrogen, Carlsbad, Calif.) supplemented with 10% FCS (Biomedia, Foster City, Calif.) in the presence of penicillin streptomycin at 37° C. with 5% CO2.
as §1

CXCL12: chemokine ligand of CXCR4 (Peprotech)
increase in cell number (Nf1−/− astrocytes [1]): ~14+/−2%
decline in apoptosis (sub-G0) (Nf1−/− astrocytes [2]): 27+/−12%
integrated area under the cAMP curve (Nf1+/+ astrocytes): 2.70
intracellular cAMP, lower level of oscillation (Nf1+/+ astrocytes): 40 % of baseline
cAMP, lower level of fluctuation (cortical astrocytes): 40 % of baseline
increase in cell number (U87 glioblastoma cells): greater than 2 fold
increase in cell number (U87 glioblastoma cells; serum-free): greater than 200%
